From paper PMC10892288, “Early Stage Preclinical Formulation Strategies to Alter the Pharmacokinetic Profile of Two Small Molecule Therapeutics” (Pharmaceuticals, 2024)
In brackets after ≈: the same amount, converted by molar mass. Like-named read-outs stand apart in the source and are kept apart here.

Tests used:
[1] = Solubility in phosphate buffer saline (PBS); type: physicochemical; conditions: phosphate buffered saline (PBS)
[2] = Body weight change in multiday IP study; type: in vivo; conditions: IP 150 mpk BID, study spanning over 10 days, mice
[3] = Mouse PK of G7883, PO in MCT vehicle; type: in vivo, female CD-1 mice; conditions: for AUC(0-t) / Cmax / Tmax / bioavailability / half-life: female; for AUC(0-t): CD-1, mouse, plasma, po, read-out: AUC0 to 8; for Cmax / Tmax / bioavailability / half-life: CD-1, plasma
Method: A total of 0.6% w/v Methylcellulose, 0.2% w/v Tween 80 in water (MCT) was prepared by slowly adding Methylcellulose (Methylocel A15 LV; CAS 9004-67-5, Part ID: 64605-500G-F 27.5-31.5% Methoxyl basis, Sigma-Aldrich, St. Louis, MO, USA) in small portions to prevent clumping while stirring into water at 70–80 °C. Once a homogeneous suspension formed, Tween 80 (Polysorbate 80; CAS#9005-65-6 (Polyoxyethylene (20) Sorbitan Monooleate; Tween 80) Part ID: PO138, Spectrum Chemical, New Brunswick, NJ, USA) was added and stirred until fully dissolved. Vehicle was filtered through 0.22 µm PES (Corning REF no. 431098) prior to adding to the compound for dosing. Respective compound was added based on the target concentration to the MCT vehicle and stirred at 35 °C until the power was well-dispersed. Formulations were homogenized through a polytron homogenizer and then sonicated in a water bath sonicator until a homogeneous suspension was achieved.
The pharmacokinetics of G7883 were determined in female CD-1 mice obtained from Charles River Laboratories (Hollister, CA, USA) with a body weight ranging from 20 to 25 g. The pharmacokinetics of G6893 were determined in female C57BL-6 mice (Lingchang/Vital River Laboratory Animal Co., Ltd., Shanghai/Beijing, China) with a body weight ranging from 20 to 35 g. Three mice were given an oral dose of G7883 formulated in 0.6% Methylcellulose, 0.2% Tween80 in water (MCT) at 25 mg/kg and 250 mg/kg with a dosing volume of 10 mL/kg. Food and water were available ad libitum to the animals. Three mice were given an oral dose of G6893 formulated in 0.6% methylcellulose; 0.2% Tween80 in water with pH adjusted to 2.5 at 30 mg/kg and a dose volume of 5 mL/kg. For both compounds, G7883 and G6893, 15 µL of blood was collected serially at 0. 25, 0.5, 1, 2, 4, 6, 8, and 24 h post-dose and diluted in 60 µL of 1.7 mg/mL potassium K2EDTA water. The frozen blood samples were stored at −70 °C or lower until analysis.
All plasma and cell media concentrations of G7883 and G6893 were determined using liquid chromatography–tandem mass spectrometry after protein precipitation with acetonitrile and injection of the supernatant onto the column (Waters ACQUITY UPLC BEH C18 1.7 μm, 2.1 × 50 mm for G7883 and G6893). The aqueous mobile phase was 0.1% formic acid, 2 mM ammonium formate in water/acetonitrile (v:v, 95:5), and the organic mobile phase was 0.1% formic acid, 2 mM ammonium formate in acetonitrile/water (v:v, 95:5). An AB Sciex API 4000 Triple Quad instrument was used for detecting G7883 and G6893 (Figure S2). The electrospray ionization source in both columns was operated in the positive ion and multiple reaction monitoring (MRM) detection modes. The MRM transitions for G7883 and G6893 were m/z 462.2 (Q1) and 253.10 (Q3) and m/z 454.2 (Q1) and 325.9 (Q3), respectively. The dynamic range of both assays was 0.50–50.0 ng/mL, and the total run time was 1.6 min. The lower limit of quantitation of the assay was […], and the dilution quality control concentration was set at 10 ng/mL with acceptance criteria for accuracy and precision of 25%.
All plasma and cell media concentrations of G7883 were determined using liquid chromatography–tandem mass spectrometry after protein precipitation with acetonitrile and injection of the supernatant onto the column (Phenomenex Kinetex XB-C18, 30 × 2.1 mm, 2.6 µm). The aqueous mobile phase was 10 mM of ammonium formate in water, and the organic mobile phase was 0.1% formic acid in acetonitrile. An AB Sciex API 5500 Triple Quad instrument was used for detecting G7883. The electrospray ionization source in both columns was operated in the positive ion and MRM detection modes. The MRM transitions for G7883 were m/z 462.2 (Q1) and 253.10 (Q3), respectively. The dynamic range of the assay was 0.50–50.0 ng/mL, and the total run time was 2 min. […]

[4] = 250 mg/kg, PO 250 mpk, mean ± SD

For `Cc1nccnc1-c1nn2c(=O)cc(-c3ccc(C4CCCCC4)cc3)[nH]c2c1C(=O)N1CC(CF)C1` [G7883, 5-(4-cyclohexylphenyl)-3-[3-(fluoromethyl)azetidine-1-carbonyl]-2-(3-methylpyrazin-2-yl)-4H-pyrazolo[1,5-a]pyrimidin-7-one], the solubility [1] was 89 µg/mL (≈ 178 µM), the body weight change [2] was “significant decreases in the body weights of mice were observed” and the “AUC0 to 8” value ([3]; PO 250 mpk, mean ± SD, 250 mg/kg) was 25.1 ± 5.43 µM·h. The AUC(0-t) ([3]; 25 mg/kg, PO 25 mpk, mean ± SD) was 1.99 ± 0.4 µM·h, the AUC(0-t) [3, 4] was 25 µM·h and the Cmax ([3]; 25 mg/kg, PO 25 mpk, mean ± SD) was 1.25 ± 0.82 µM. The Tmax ([3]; 25 mg/kg, PO 25 mpk, mean ± SD) was 0.5 h, the bioavailability ([3]; 25 mg/kg, PO 25 mpk, mean ± SD, read-out: F) was 6.18 ± 1.24% and the half-life ([3]; 25 mg/kg, PO 25 mpk, mean ± SD, read-out: t1/2 (converted)) was 2.17 ± 0.73 h. For the same compound, the Cmax [3, 4] was 6.85 ± 2.24 µM, the Tmax [3, 4] was 0.583 ± 0.382 h and the bioavailability ([3]; 250 mg/kg, PO 250 mpk, mean ± SD, read-out: F) was 7.8 ± 1.69%. The half-life ([3]; 250 mg/kg, PO 250 mpk, mean ± SD, read-out: t1/2 (converted)) was 2.74 ± 0.201 h, the bioavailability ([3]; PO, 25 to 250 mpk, read-out: bioavailability) was about 7% and the half-life ([3]; PO, 25 to 250 mpk, read-out: plasma half-life (converted)) was 2 h.
